# Data as given in patent US11820766B2, “Monoacylglycerol lipase modulators” (Janssen Pharmaceutica NV, priority 2018, dated 2023).
# Molecular target: T1, human MGL from HeLa cells (Homo sapiens, UniProt Q99685)
# T1 construct: combining endogenously expressed MGL from HeLa cells with test compounds; endogenous in cells; host or cells: HeLa cells / cell homogenates
# T1 sequence (Q99685 1-303): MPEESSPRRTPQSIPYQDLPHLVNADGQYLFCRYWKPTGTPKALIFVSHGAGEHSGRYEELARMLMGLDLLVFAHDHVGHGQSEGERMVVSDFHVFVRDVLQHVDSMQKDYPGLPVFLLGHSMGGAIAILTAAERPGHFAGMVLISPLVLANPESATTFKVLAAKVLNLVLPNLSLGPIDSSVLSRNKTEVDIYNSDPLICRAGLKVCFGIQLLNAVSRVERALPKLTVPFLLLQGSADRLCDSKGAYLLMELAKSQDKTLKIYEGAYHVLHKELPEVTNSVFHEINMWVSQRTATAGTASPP
# Experiment: In vitro MGL activity assay: [glycerol-1,3-3H]-oleyl glycerol cleavage by MGL from HeLa cells
# Assay type: biochemical
# Settings: 300 nM [Glycerol-1,3-3H]-oleyl glycerol, one hour
# Source text: MGL is the predominant hydrolase in HeLa cells/cell homogenates.
row,IC50 [µM],Structure (SMILES)
1,0.22,"Cc1ccccc1-c1c2c(nn1C)[C@H](C)N(C(=O)c1ccc3ncccc3c1)CC2 [Example 492, [(7S)-2,7-Dimethyl-3-(o-tolyl)-5,7-dihydro-4H-pyrazolo[3,4-c]pyridin-6-yl]-(6-quinolyl)methanone]"
2,0.0341,"Cc1nn2ccnc(C)c2c1C(=O)N1CCc2c(nn(C)c2-c2cc(F)c(F)c(F)c2)[C@@H]1C [Example 446, (2,4-Dimethylpyrazolo[1,5-a]pyrazin-3-yl)-[(7S)-2,7-dimethyl-3-(3,4,5-trifluorophenyl)-5,7-dihydro-4H-pyrazolo[3,4-c]pyridin-6-yl] methanone]"
3,1.56,"Cc1cc(C(=O)N2CCc3c(nn(C)c3-c3cc(F)c(F)c(F)c3)[C@@H]2C)n2ncnc2n1 [Example 472, [(7S)-2,7-Dimethyl-3-(3,4,5-trifluorophenyl)-5,7-dihydro-4H-pyrazolo[3,4-c]pyridin-6-yl]-(5-methyl-[1,2,4]triazolo[1,5-a]pyrimidin-7-yl)methanone]"
4,0.0325,"C[C@H]1c2nn(C)c(-c3cc(F)c(F)c(F)c3)c2CCN1C(=O)c1cnn(C)c1C1CC1F (mixture of isomers) [Example 340, ((S)-2,7-Dimethyl-3-(3,4,5-trifluorophenyl)-2,4,5,7-tetrahydro-6H-pyrazolo[3,4-c]pyridin-6-yl)(trans-5-(2-fluorocyclopropyl)-1-methyl-1H-pyrazol-4-yl)methanone]"
5,0.00492,"C[C@H]1c2nn(C)c(-c3cc(F)c(F)c(F)c3)c2CCN1C(=O)c1cccc2cnccc12 [Example 543, [(7S)-2,7-Dimethyl-3-(3,4,5-trifluorophenyl)-5,7-dihydro-4H-pyrazolo[3,4-c]pyridin-6-yl]-(5-isoquinolyl)methanone]"
6,0.312,"Cc1nc2c(C)ncc(C)n2c1C(=O)N1CCc2c(nn(C)c2-c2cc(F)c(F)c(F)c2)[C@@H]1C [Example 459, [(7S)-2,7-Dimethyl-3-(3,4,5-trifluorophenyl)-5,7-dihydro-4H-pyrazolo[3,4-c]pyridin-6-yl]-(2,5,8-trimethylimidazo[1,2-a]pyrazin-3-yl)methanone]"
7,0.00846,"Cc1cc(F)cc(-c2c3c(nn2C)[C@H](C)N(C(=O)c2ncnc4c2ccn4C)CC3)c1 [Example 465, [(7S)-3-(3-Fluoro-5-methyl-phenyl)-2,7-dimethyl-5,7-dihydro-4H-pyrazolo[3,4-c]pyridin-6-yl]-(7-methylpyrrolo[2,3-d]pyrimidin-4-yl) methanone]"
8,0.049,"Cc1nn2cccnc2c1C(=O)N1CCc2c(nn(C)c2-c2cc(F)c(F)c(F)c2)[C@@H]1C [Example 449, [(7S)-2,7-Dimethyl-3-(3,4,5-trifluorophenyl)-5,7-dihydro-4H-pyrazolo[3,4-c]pyridin-6-yl]-(2-methylpyrazolo[1,5-a]pyrimidin-3-yl)methanone]"
9,2.38,"Cc1ccnn2nc(C3CC3)c(C(=O)N3CCc4c(nn(C)c4-c4cc(F)c(F)c(F)c4)[C@@H]3C)c12 [Example 444, (2-Cyclopropyl-4-methyl-pyrazolo[1,5-b]pyridazin-3-yl)-[(7S)-2,7-dimethyl-3-(3,4,5-trifluorophenyl)-5,7-dihydro-4H-pyrazolo[3,4-c]pyridin-6-yl]methanone]"
10,0.0561,"C[C@H]1c2nn(C)c(-c3cc(F)c(F)c(F)c3)c2CCN1C(=O)c1n[nH]c2cnccc12 [Example 430, [(7S)-2,7-Dimethyl-3-(3,4,5-trifluorophenyl)-5,7-dihydro-4H-pyrazolo[3,4-c]pyridin-6-yl]-(1H-pyrazolo[3,4-c]pyridin-3-yl)methanone]"
11,0.0757,"C[C@H]1c2nn(C)c(-c3ccc(OC(F)(F)F)cc3)c2CCN1C(=O)c1ccc2ncccc2c1 [Example 500, [(7S)-2,7-Dimethyl-3-[4-(trifluoromethoxy)phenyl]-5,7-dihydro-4H-pyrazolo[3,4-c]pyridin-6-yl]-(6-quinolyl)methanone]"
12,0.102,"C[C@H]1c2nn(C)c(-c3cc(F)c(F)c(F)c3)c2CCN1C(=O)c1cccc2c1OC1(CC1)CN2 [Example 604, [(7S)-2,7-Dimethyl-3-(3,4,5-trifluorophenyl)-5,7-dihydro-4H-pyrazolo[3,4-c]pyridin-6-yl]-spiro[3,4-dihydro-1,4-benzoxazine-2,1′-cyclopropane]-8-yl-methanone]"

# Same assay, conditions: 300 nM [Glycerol-1,3-3H]-oleyl glycerol, one hour incubation
row,IC50 [µM],Structure (SMILES)
1,0.00317,"C[C@H]1c2nn(C)c(-c3cc(F)c(F)c(F)c3)c2CCN1C(=O)c1noc2ccccc12 [Example 215, (S)-Benzo[d]isoxazol-3-yl(2,7-dimethyl-3-(3,4,5-trifluorophenyl)-2,4,5,7-tetrahydro-6H-pyrazolo[3,4-c]pyridin-6-yl)methanone]"
2,0.049,"Cn1nc2c(c1-c1ccccc1)CCN(C(=O)c1nsc3ccccc13)C2 [Example 63, Benzo[d]isothiazol-3-yl(2-methyl-3-phenyl-2,4,5,7-tetrahydro-6H-pyrazolo[3,4-c]pyridin-6-yl)methanone]"
3,0.00507,"C[C@H]1c2nn(C)c(-c3cc(F)c(F)c(F)c3)c2CCN1C(=O)c1nccc2c1ccn2C [Example 217, (S)-(2,7-Dimethyl-3-(3,4,5-trifluorophenyl)-2,4,5,7-tetrahydro-6H-pyrazolo[3,4-c]pyridin-6-yl)(1-methyl-1H-pyrrolo[3,2-c]pyridin-4-yl)methanone]"
4,0.00463,"CC1c2nn(C(F)F)c(-c3cc(F)cc(F)c3)c2CCN1C(=O)c1ccc2ncccc2c1 (centres unmarked) [Example 155, (2-(Difluoromethyl)-3-(3,5-difluorophenyl)-7-methyl-2,4,5,7-tetrahydro-6H-pyrazolo[3,4-c]pyridin-6-yl)(quinolin-6-yl)methanone]"
5,0.00579,"C[C@H]1c2nn(C)c(-c3cc(F)c(F)c(F)c3)c2CCN1C(=O)c1cccc2cccnc12 [Example 236, (S)-(2,7-Dimethyl-3-(3,4,5-trifluorophenyl)-2,4,5,7-tetrahydro-6H-pyrazolo[3,4-c]pyridin-6-yl)(quinolin-8-yl)methanone]"
6,0.923,"COc1ccc(C(=O)N2CCc3c(nn(C)c3-c3cc(F)c(F)c(F)c3)[C@@H]2C)cc1-n1cnnc1 [Example 297, [(7S)-2,7-Dimethyl-3-(3,4,5-trifluorophenyl)-5,7-dihydro-4H-pyrazolo[3,4-c]pyridin-6-yl]-[4-methoxy-3-(1,2,4-triazol-4-yl)phenyl]methanone]"
7,> 10,"COc1cccc(OC)c1C(=O)N1CCc2c(nn(C)c2-c2ccccc2)C1 [Example 10, (2,6-Dimethoxyphenyl)(2-methyl-3-phenyl-2,4,5,7-tetrahydro-6H-pyrazolo[3,4-c]pyridin-6-yl)methanone]"
8,4.81,"Cc1nc2cccc(Cl)n2c1C(=O)N1CCc2c(nn(C)c2-c2ccccc2)C1 [Example 82, (5-Chloro-2-methylimidazo[1,2-a]pyridin-3-yl)(2-methyl-3-phenyl-2,4,5,7-tetrahydro-6H-pyrazolo[3,4-c]pyridin-6-yl)methanone]"
9,0.06,"Cc1ccc(-n2nccn2)c(C(=O)N2CCc3c(nn(C)c3-c3cc(F)c(F)c(F)c3)[C@@H]2C)c1 [Example 197, (S)-(2,7-Dimethyl-3-(3,4,5-trifluorophenyl)-2,4,5,7-tetrahydro-6H-pyrazolo[3,4-c]pyridin-6-yl)(5-methyl-2-(2H-1,2,3-triazol-2-yl)phenyl)methanone]"
10,1.84,"CCc1c(OC)cccc1C(=O)N1CCc2c(nn(C)c2-c2ccccc2)C1 [Example 8, (2-Ethyl-3-methoxyphenyl)(2-methyl-3-phenyl-2,4,5,7-tetrahydro-6H-pyrazolo[3,4-c]pyridin-6-yl)methanone]"
11,0.261,"Cc1ccc(-c2c3c(nn2C)[C@H](C)N(C(=O)c2ccc4nccnc4c2)CC3)o1 [Example 107, (S)-(2,7-Dimethyl-3-(5-methylfuran-2-yl)-2,4,5,7-tetrahydro-6H-pyrazolo[3,4-c]pyridin-6-yl)(quinoxalin-6-yl)methanone]"
12,4.26,"Cn1nc2c(c1-c1ccccc1)CCN(C(=O)c1cccc3nccnc13)C2 [Example 97, (2-Methyl-3-phenyl-2,4,5,7-tetrahydro-6H-pyrazolo[3,4-c]pyridin-6-yl)(quinoxalin-5-yl)methanone]"
13,1.09,"Cc1nc2sccn2c1C(=O)N1CCc2c(nn(C)c2-c2ccccc2)C1 [Example 32, (2-Methyl-3-phenyl-2,4,5,7-tetrahydro-6H-pyrazolo[3,4-c]pyridin-6-yl)(6-methylimidazo[2,1-b]thiazol-5-yl)methanone]"
14,0.013,"C[C@H]1c2nn(C)c(-c3cc(F)cc(F)c3)c2CCN1C(=O)c1cc2nccnc2cc1F [Example 171, (S)-(3-(3,5-Difluorophenyl)-2,7-dimethyl-2,4,5,7-tetrahydro-6H-pyrazolo[3,4-c]pyridin-6-yl)(7-fluoroquinoxalin-6-yl)methanone]"
15,0.0346,"Cc1nc(C(=O)N2CCc3c(nn(C)c3-c3cc(F)c(F)c(F)c3)[C@@H]2C)nn1-c1ccc(F)cc1 [Example 322, [(7S)-2,7-Dimethyl-3-(3,4,5-trifluorophenyl)-5,7-dihydro-4H-pyrazolo[3,4-c]pyridin-6-yl]-[1-(4-fluorophenyl)-5-methyl-1,2,4-triazol-3-yl]methanone]"
16,0.00067,"C[C@H]1c2nn(C)c(-c3cc(F)cc(F)c3)c2CCN1C(=O)c1cccc2c1ccn2CCF [Example 150, (S)-(3-(3,5-Difluorophenyl)-2,7-dimethyl-2,4,5,7-tetrahydro-6H-pyrazolo[3,4-c]pyridin-6-yl)(1-(2-fluoroethyl)-1H-indol-4-yl)methanone]"
17,0.522,"COc1cnc(C(=O)N2CCc3c(nn(C)c3-c3cc(F)c(F)c(F)c3)[C@@H]2C)cn1 [Example 326, [(7S)-2,7-Dimethyl-3-(3,4,5-trifluorophenyl)-5,7-dihydro-4H-pyrazolo[3,4-c]pyridin-6-yl]-(5-methoxypyrazin-2-yl)methanone]"
